Experimental data published in patent publication US12134608B2, “Benzimidazole derivatives as dual histamine H1 and histamine H4 receptor ligands” (BIOPROJET, priority 2017, dated 2024).
Where two headings read alike, the source gives them in different places.

Experiments:
hERG channel = hERG channel (Homo sapiens, UniProt Q12809); test: hERG competition binding
Source text: Compounds that are antagonists or inverse agonists at the human H1 receptor are often found to bind to the hERG channel, giving rise to arrhythmia possibly leading to sudden cardiac arrest. This led to the withdrawal of several medicines from the clinics. This parameter has thus been evaluated for the compounds of the present application.
The discriminative recognition of hERG channel by the eutomer versus the distomer is shown in the table below where the reported values are the inhibition constant determined by competition binding: […]

human H1 receptor = human H1 receptor (Homo sapiens, UniProt P35367); test: hH1 GTPgS: inhibition of agonist-induced stimulation of radioactive GTP-gamma-S binding at recombinant receptors; assay type: biochemical
Experimental: (§1) Activity at the human H1 receptor is determined by the inhibition of agonist-induced stimulation of radioactive GTP-gamma-S binding at recombinant receptors. […] Affinity for the human H4 receptor is determined by binding competition.

human H4 receptor = human H4 receptor (Homo sapiens, UniProt Q9H3N8); test: hH4 binding competition
Experimental: as §1

[1] = Brain exposure: exposure over 8 hours in brain and plasma after per os administration to mice; assay type: in vivo; conditions: for Kp: mouse, brain/plasma, oral, examples of the present invention, read-out: ratio of the exposure in brain over the one in plasma
Experimental: Compounds that are acting as […] or inverse agonists on the histamine H1 receptor should not enter the brain. This would lead to unwanted side effects such as sedation and weight gain. The efficiency for entering into the brain may be assessed by administrating the compound per os to mice and measuring the exposure over 8 hours in the brain and in the plasma. The result may be expressed by the ratio of the exposure in brain over the one in plasma.

[2] = Bioavailability / lung exposure after per os administration to mice; assay type: in vivo
[3] = allergic conjunctivitis; Nakano Y et al. Eur J Pharmacol 2009; cited from earlier work
[4] = eutomers of the invention and their distomers
[5] = comparative compounds of WO 2012/041860, eutomer and distomer

Sequence of human H1 receptor (P35367 whole entry): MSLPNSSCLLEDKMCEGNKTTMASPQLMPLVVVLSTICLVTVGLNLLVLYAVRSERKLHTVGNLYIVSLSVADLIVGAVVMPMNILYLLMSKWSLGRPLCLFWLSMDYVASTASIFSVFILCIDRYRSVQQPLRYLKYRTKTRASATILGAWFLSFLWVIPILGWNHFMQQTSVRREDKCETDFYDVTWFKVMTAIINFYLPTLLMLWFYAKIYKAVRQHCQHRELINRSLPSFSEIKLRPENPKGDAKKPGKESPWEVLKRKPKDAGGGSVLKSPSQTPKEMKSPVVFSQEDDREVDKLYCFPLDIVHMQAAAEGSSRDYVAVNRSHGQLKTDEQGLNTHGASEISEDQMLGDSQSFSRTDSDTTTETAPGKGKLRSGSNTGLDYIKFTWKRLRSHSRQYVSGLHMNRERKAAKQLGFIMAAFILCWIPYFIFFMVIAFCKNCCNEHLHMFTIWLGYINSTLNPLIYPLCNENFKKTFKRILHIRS
Sequence of hERG channel (Q12809 whole entry): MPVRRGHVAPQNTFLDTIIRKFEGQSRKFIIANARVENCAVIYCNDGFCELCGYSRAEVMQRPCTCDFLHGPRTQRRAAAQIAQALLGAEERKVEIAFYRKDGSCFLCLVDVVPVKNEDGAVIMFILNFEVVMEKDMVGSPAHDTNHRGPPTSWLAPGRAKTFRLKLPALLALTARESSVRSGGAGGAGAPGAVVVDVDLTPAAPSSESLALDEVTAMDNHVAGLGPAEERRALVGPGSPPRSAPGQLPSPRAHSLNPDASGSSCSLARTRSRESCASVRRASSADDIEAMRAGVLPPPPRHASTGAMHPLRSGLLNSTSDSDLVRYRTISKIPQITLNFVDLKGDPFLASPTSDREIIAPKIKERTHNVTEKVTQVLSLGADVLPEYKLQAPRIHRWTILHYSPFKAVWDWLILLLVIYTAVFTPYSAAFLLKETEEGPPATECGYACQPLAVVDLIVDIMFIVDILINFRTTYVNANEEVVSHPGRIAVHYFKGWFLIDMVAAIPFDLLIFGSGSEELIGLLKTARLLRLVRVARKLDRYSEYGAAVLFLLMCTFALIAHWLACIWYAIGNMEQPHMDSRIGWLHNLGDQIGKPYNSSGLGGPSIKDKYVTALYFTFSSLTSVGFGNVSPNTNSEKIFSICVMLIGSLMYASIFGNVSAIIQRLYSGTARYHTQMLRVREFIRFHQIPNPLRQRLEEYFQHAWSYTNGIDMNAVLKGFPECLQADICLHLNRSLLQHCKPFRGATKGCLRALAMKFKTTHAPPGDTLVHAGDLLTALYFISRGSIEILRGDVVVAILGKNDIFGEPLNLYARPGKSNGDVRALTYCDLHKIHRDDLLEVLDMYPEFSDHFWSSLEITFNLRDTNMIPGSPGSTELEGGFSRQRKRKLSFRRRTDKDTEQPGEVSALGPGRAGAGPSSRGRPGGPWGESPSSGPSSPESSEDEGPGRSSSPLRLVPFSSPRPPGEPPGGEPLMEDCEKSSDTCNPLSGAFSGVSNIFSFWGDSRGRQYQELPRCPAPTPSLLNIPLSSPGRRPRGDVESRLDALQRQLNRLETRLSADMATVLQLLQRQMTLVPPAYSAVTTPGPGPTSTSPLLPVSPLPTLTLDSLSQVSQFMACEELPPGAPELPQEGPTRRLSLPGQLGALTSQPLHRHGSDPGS

Compound | Kb (human H1 receptor) | Ki (human H4 receptor) | Ki (hERG channel; [4]) | Ki (hERG channel; [5]) | other results
CN1CCC(O[C@H](c2nc3ccccc3[nH]2)c2cccc(F)c2O)CC1 [Example 1, (S)-2-[(1H-benzimidazol-2-yl)(1-methylpiperidin-4-yloxy)methyl]-6-fluorophenol] | 2.18 nM | 5.02 nM | 11400 nM | – | –
CN1CCC(OC(c2nc3ccccc3[nH]2)c2ccc(F)c(F)c2O)CC1 (stereo not shown) [drawing 26 Distomer, reference compound] | – | – | – | 32000 nM | –
CN1CCC(OC(c2nc3ccccc3[nH]2)c2ccc(F)c(F)c2O)CC1 (stereo not shown) [drawing 26 Eutomer, reference compound] | – | – | – | 18000 nM | –
CN1CCC(OC(c2nc3ccccc3[nH]2)c2ccc(Cl)c(F)c2O)CC1 (stereo not shown) [drawing 28 Distomer, reference compound] | – | – | – | 8430 nM | –
Cc1ccc(C(OC2CCN(C)CC2)c2nc3ccccc3[nH]2)c(F)c1 (stereo not shown) [drawing 24 Distomer, reference compound] | – | – | – | 363 nM | –
(S)-2-[(1H-benzimidazol-2-yl)(1-methylpiperidin-4-yloxy)methyl]-6-fluorophenol [Example 1] | – | – | – | – | ratio of the exposure in brain over the one in plasma ([1]; 10 mg/kg, comparative compounds, example numbers of WO2012/041860): 13
Cc1ccc(C(OC2CCN(C)CC2)c2nc3ccccc3[nH]2)c(F)c1 (stereo not shown) [drawing 24 Eutomer, reference compound] | – | – | – | 503 nM | –
Cc1ccc(C(OC2CCN(C)CC2)c2nc3ccc(F)cc3[nH]2)c(O)c1F (single isomer, unassigned) [drawing 27 Distomer, reference compound] | – | – | – | 799 nM | –
CN1CCC(OC(c2nc3cc(F)ccc3[nH]2)c2ccccc2O)CC1 (single isomer, unassigned) [Example 5] | 1.65 nM | 0.915 nM | 3210 nM | – | lung AUC ([2]; 1 mg/kg): 1264 ng·h/g
Cc1ccc(C(OC2CCN(C)CC2)c2nc3ccccc3[nH]2)c(O)c1F (stereo not shown) [drawing 25 Distomer, reference compound] | – | – | – | 5700 nM | –
Cc1ccc(C(OC2CCN(C)CC2)c2nc3ccc(F)cc3[nH]2)c(O)c1F (single isomer, unassigned) [drawing 27 Eutomer, reference compound] | – | – | – | 220 nM | –
C[C@@H]1CN([C@H]2CC[C@](C#N)(c3ccc(F)cc3)CC2)CC[C@]1(C(=O)O)c1ccccc1 [levocabastine] | – | – | – | – | eye scratching behavior [3]: inhibited eye scratching behavior
CN1CCC(OC(c2nc3ccccc3[nH]2)c2ccc(Cl)c(F)c2O)CC1 (stereo not shown) [drawing 28 Eutomer, reference compound] | – | – | – | 6680 nM | –
CN1CCC(OC(c2nc3ccccc3[nH]2)c2cccc(F)c2O)CC1 (single isomer, unassigned) [Example 1] | – | – | – | – | lung AUC ([2]; 10 mg/kg): 20486 ng·h/g; Kp ([1]; 10 mg/kg): 0.2
Cc1ccc(C(OC2CCN(C)CC2)c2nc3ccccc3[nH]2)c(O)c1F (stereo not shown) [drawing 25 Eutomer, reference compound] | – | – | – | 3100 nM | –
CN1CCC(OC(c2nc3ccccc3[nH]2)c2cccc(F)c2O)CC1 (single isomer, unassigned) [Example 1 Distomer A] | 225 nM | 788 nM | 4210 nM | – | –

More lines, main results first:

Kb (human H1 receptor) | Ki (human H4 receptor) | Compound | Ki (hERG channel; [4]) | Ki (hERG channel; [5]) | other results
132 nM | 73.1 nM | Cc1c(Cl)ccc2nc(C(OC3CCN(C)CC3)c3ccccc3O)[nH]c12 (single isomer, unassigned) [Example 7 Distomer A] | 586 nM | – | –
156 nM | 42 nM | CN1CCC(OC(c2nc3ccc(Cl)c(F)c3[nH]2)c2ccccc2O)CC1 (single isomer, unassigned) [Example 3 Distomer A] | 783 nM | – | –
0.165 nM | 2.87 nM | Cc1cccc2nc(C(OC3CCN(C)CC3)c3ccccc3O)[nH]c12 (single isomer, unassigned) [Example 4] | 21300 nM | – | lung AUC ([2]; 1 mg/kg): 1144 ng·h/g; Kp ([1]; 1 mg/kg): 0.3
133 nM | 491 nM | Cc1cccc2nc(C(OC3CCN(C)CC3)c3ccccc3O)[nH]c12 (single isomer, unassigned) [Example 4 Distomer A] | 2780 nM | – | –
1.87 nM | 0.727 nM | Cc1c(Cl)ccc2nc(C(OC3CCN(C)CC3)c3ccccc3O)[nH]c12 (single isomer, unassigned) [Example 7] | 3010 nM | – | lung AUC ([2]; 1 mg/kg): 1169 ng·h/g
97.5 nM | 249 nM | CN1CCC(OC(c2nc3cc(F)ccc3[nH]2)c2ccccc2O)CC1 (single isomer, unassigned) [Example 5 Distomer A] | 646 nM | – | –
598 nM | 474 nM | CN1CCC(OC(c2nc3cccc(Cl)c3[nH]2)c2ccccc2O)CC1 (single isomer, unassigned) [Example 6 Distomer A] | 1490 nM | – | –
1.43 nM | 0.61 nM | CN1CCC(OC(c2nc3ccc(Cl)c(F)c3[nH]2)c2ccccc2O)CC1 (single isomer, unassigned) [Example 3] | 2580 nM | – | lung AUC ([2]; 1 mg/kg): 10037 ng·h/g; Kp ([1]; 1 mg/kg): 0
1.25 nM | 3.42 nM | CN1CCC(OC(c2nc3cccc(Cl)c3[nH]2)c2ccccc2O)CC1 (single isomer, unassigned) [Example 6] | 12500 nM | – | lung AUC ([2]; 1 mg/kg): 6316 ng·h/g; Kp ([1]; 1 mg/kg): 0
